In the Kinase Knowledgebase extract (Sharma et al. 2016):

Biological target: CDK2 (human) (UniProt P24941)
Test: Cell-Based Assay

Row | Structure (SMILES) | IC50 (rko) [nM] | IC50 (mda-mb-435) [nM]
1 | COc1cc[nH]c1/C=C1\C(=O)Nc2ccc([N+](=O)[O-])c(N3CCC(O)CC3)c21 | < 10 | –
2 | COc1cc[nH]c1/C=C1\C(=O)Nc2ccc([N+](=O)[O-])c(-n3ccnc3)c21 | – | > 30000
3 | COc1cc[nH]c1/C=C1\C(=O)Nc2ccc(F)cc21 | – | > 30000
4 | COc1cc[nH]c1/C=C1\C(=O)Nc2ccc([N+](=O)[O-])c(NC3CCC(N)C3)c21 (stereo unspecified) | < 15 | 61
5 | COc1cc[nH]c1/C=C1\C(=O)Nc2ccc([N+](=O)[O-])c(NC3CCC(O)C3)c21 (stereo unspecified) | 339 | 1000

Continued, values first:

Row | IC50 (rko) [nM] | IC50 (mda-mb-435) [nM] | Structure (SMILES)
6 | < 10 | < 10 | COc1cc[nH]c1/C=C1\C(=O)Nc2ccc([N+](=O)[O-])c(N3CC[C@@H](N)C3)c21
7 | < 10 | < 10 | COc1cc[nH]c1/C=C1\C(=O)Nc2ccc([N+](=O)[O-])c(N3CCC(N)CC3)c21
